Entries after “also recorded” stand apart in the source; their conditions may differ.
Assays:
[1] = tested on: patients with advanced Alzheimer's disease; assay: Safety and tolerability, treatment emergent adverse events (TEAEs), same trial; type: in vivo, human; conditions: 40 μg group
Experimental: In a double-blind, randomized, placebo-controlled trial, bryostatin was administered by intravenous infusion (˜45 minutes) to patients with advanced Alzheimer's disease for 12 weeks at doses of 20 or 40 μg. Randomization was stratified at baseline by severe (MMSE-2, 4-9) and moderate (MMSE-2, 10-15) dementia, wherein MMSE-2 refers to Mini-Mental State Examination, version 2. The MMSE or Folstein test is a 30-point questionnaire that is used extensively in clinical and research settings to measure cognitive impairment. Low scores indicate greater impairment. […]
Adults aged 55-85 with cognitive deficits present for at least 2 years, MMSE-2 of 4-15, inclusive, and a diagnosis of Alzheimer's dementia were randomly assigned to receive blinded intravenous infusions of bryostatin 24 μg or matching placebo at weeks 0 and 1. […] In one arm, the two 24 μg doses were followed by 20 μg doses at weeks 5, 7, 9 and 11 with the Severe Impairment Battery (SIB) measured at baseline and weeks 5, 9, 13, and 15. In a second arm, the two 48 μg doses at weeks 0 and 1 were followed by 40 μg doses at weeks 5, 7, 9, and 11 with the SIB measured at baseline and weeks 5, 9, 13, and 15. […] The first primary endpoint was safety and tolerability, assessed by treatment emergent adverse events (TEAEs) with a sample size of 150 subjects randomized 1:1:1. […]

[2] = tested on: patients with advanced Alzheimer's disease; assay: Severe Impairment Battery (SIB) change from baseline, double-blind randomized placebo-controlled trial; type: in vivo, human; conditions: for Mean slope of SIB over time, Unweight Slope / Mean slope of SIB over time, Weighted Slope: 20 μg Bryostatin; for Mean slope of SIB over time, Unweight Slope: baseline to week 15; for Mean slope of SIB over time, Weighted Slope: weighted by number of non-zero SIB scores; for SIB Total change from baseline, LS Mean (SE) / SIB Total, Difference vs. Placebo / SIB Total change from baseline, LS Mean: Bryostatin 20 μg
Experimental: In a double-blind, randomized, placebo-controlled trial, bryostatin was administered by intravenous infusion (˜45 minutes) to patients with advanced Alzheimer's disease for 12 weeks at doses of 20 or 40 μg. Randomization was stratified at baseline by severe (MMSE-2, 4-9) and moderate (MMSE-2, 10-15) dementia, wherein MMSE-2 refers to Mini-Mental State Examination, version 2. The MMSE or Folstein test is a 30-point questionnaire that is used extensively in clinical and research settings to measure cognitive impairment. Low scores indicate greater impairment. Version 2 of the MMSE was published in 2010, expanding the original questionnaire's usefulness in populations with milder forms of cognitive impairment. […] Importantly, this cognitive improvement persisted and increased 30 days after all bryostatin dosing had been completed.
Adults aged 55-85 with cognitive deficits present for at least 2 years, MMSE-2 of 4-15, inclusive, and a diagnosis of Alzheimer's dementia were randomly assigned to receive blinded intravenous infusions of bryostatin 24 μg or matching placebo at weeks 0 and 1. The 24 μg and 48 μg doses during the first two weeks of the 20 and 40 μg protocols respectively were considered to be “loading” doses thought to be beneficial from prior experience with Compassionate Use trial patients. Nelson et al., Alzheimers Dis. 2017 58: 521-535. In one arm, the two 24 μg doses were followed by 20 μg doses at weeks 5, 7, 9 and 11 with the Severe Impairment Battery (SIB) measured at baseline and weeks 5, 9, 13, and 15. In a second arm, the two 48 μg doses at weeks 0 and 1 were followed by 40 μg doses at weeks 5, 7, 9, and 11 with the SIB measured at baseline and weeks 5, 9, 13, and 15. The subjects were stratified by MMSE-2 in two strata: Stratum 1 (4-9) and Stratum 2 (10-15). The first primary endpoint was safety and tolerability, assessed by treatment emergent adverse events (TEAEs) with a sample size of 150 subjects randomized 1:1:1. Although efficacy was the secondary measure, the primary efficacy endpoint was SIB improvement at week 13 evaluated using a mixed model for repeated measures. A secondary efficacy endpoint was ADCS-ADL Sev. The primary safety population included all subjects who received at least 1 dose of study drug, and efficacy was evaluated in a modified intent to treat (mITT) population that received at least 1 dose of study drug and had at least one treatment evaluation. Efficacy was evaluated both as a primary end-point in the modified intent-to-treat (mITT) population and also as a primary end point in a Completers population that included all patients that completed the entire protocols as described above.
The SIB efficacy measurement at 30 days (week 15) post dosing—after all dosing had been completed (last dose administered at week 11)—was a pre-specified exploratory endpoint. Week 15 results were only included for subjects who were not re-randomized. The mixed model assumes missing at random, but order of enrollment in the trial was not random. Since order of enrollment was not random, the assumption of missing at random is not met. For this reason, only including week 15 for those who were not re-randomized is an appropriate way to estimate week 15 results, but not an appropriate way to estimate results at the earlier visits. For this reason, estimates up through week 13 are from a mixed model that only included data through week 13 and the week 15 estimates are from a separate model. Results were generated using a mixed model with repeated measures predicting change from baseline in SIB Total Score as the response variable and using baseline score, baseline MMSE strata, treatment, visit (categorical), and visit (treatment) as predictors. […]

[3] = Week 5, Completer, With Memantine
[4] = Week 5, Completer, Without Memantine
[5] = Week 9, Completer, With Memantine
[6] = Week 9, Completer, Without Memantine
[7] = Week 13, Completer, With Memantine
[8] = Week 13, Completer, Without Memantine
[9] = Week 13, FAS (mITT), With Memantine

CCC/C=C/C=C/C(=O)O[C@H]1/C(=C/C(=O)OC)C[C@H]2C[C@H]([C@@H](C)O)OC(=O)C[C@H](O)C[C@@H]3C[C@H](OC(C)=O)C(C)(C)[C@](O)(C[C@@H]4C/C(=C/C(=O)OC)C[C@H](/C=C/C(C)(C)[C@]1(O)O2)O4)O3 [Bryostatin, bryostatin-1]
Safety results (adverse events) [1]: more adverse events | Mean slope of SIB over time, Unweight Slope ([2]; first column group (strata head not given, probably memantine naïve)): 0.382 | Mean slope of SIB over time, Unweight Slope ([2]; second column group (strata head not given, probably memantine exposed)): −0.143 | Mean slope of SIB over time, Weighted Slope ([2]; first column group (probably memantine naïve)): 0.363 | Mean slope of SIB over time, Weighted Slope ([2]; second column group (probably memantine exposed)): −0.099 | SIB improvement at week 5 compared to placebo and baseline ([2]; 20 μg arm, week 5, after 3 doses): significant improvement | SIB improvement compared to placebo ([2]; 20 μg dose, patients on memantine background therapy): no SIB improvement; also recorded: did not occur | SIB improvement versus baseline and placebo ([2]; 20 μg dose, throughout the 13-week trial): sustained improvements in SIB scores; also recorded: sustained efficacy; also recorded: sustained improvement in SIB | SIB improvement versus baseline and placebo ([2]; 40 μg dose): lack of efficacy; also recorded: no SIB improvement | SIB Total change from baseline, LS Mean (SE) ([2]; Week 5, Completer, MMRM): 1.67 (0.964) | SIB Total, Difference vs. Placebo ([2]; Week 5, Completer, MMRM): 4.00 | SIB Total change from baseline, LS Mean [2, 3]: 0.61 | SIB Total, Difference vs. Placebo [2, 3]: 2.94 | SIB Total change from baseline, LS Mean [2, 4]: 3.22 | SIB Total, Difference vs. Placebo [2, 4]: 5.38 | SIB Total change from baseline, LS Mean (SE) ([2]; Week 5, FAS, MMRM): 1.18 (1.102) | SIB Total, Difference vs. Placebo ([2]; Week 5, FAS, MMRM): 2.96 | SIB Total change from baseline, LS Mean ([2]; Week 5, FAS, With Memantine): 0.26 | SIB Total, Difference vs. Placebo ([2]; Week 5, FAS, With Memantine): 1.96 | SIB Total change from baseline, LS Mean ([2]; Week 5, FAS, Without Memantine): 2.74 | SIB Total, Difference vs. Placebo ([2]; Week 5, FAS, Without Memantine): 4.48 | SIB Total change from baseline, LS Mean (SE) ([2]; Week 9, Completer, MMRM): 1.28 (1.119) | SIB Total, Difference vs. Placebo ([2]; Week 9, Completer, MMRM): 1.85 | SIB Total change from baseline, LS Mean [2, 5]: −0.16 | SIB Total, Difference vs. Placebo [2, 5]: 0.90 | SIB Total change from baseline, LS Mean [2, 6]: 3.34 | SIB Total, Difference vs. Placebo [2, 6]: 2.66 | SIB Total change from baseline, LS Mean (SE) ([2]; Week 9, FAS, MMRM): 0.94 (1.149) | SIB Total, Difference vs. Placebo ([2]; Week 9, FAS, MMRM): 1.03 | SIB Total change from baseline, LS Mean ([2]; Week 9, FAS, With Memantine): −0.33 | SIB Total, Difference vs. Placebo ([2]; Week 9, FAS, With Memantine): 0.09 | SIB Total change from baseline, LS Mean ([2]; Week 9, FAS, Without Memantine): 2.95 | SIB Total, Difference vs. Placebo ([2]; Week 9, FAS, Without Memantine): 2.08 | SIB Total change from baseline, LS Mean (SE) ([2]; Week 13, Completer, MMRM): 1.51 (1.118) | SIB Total, Difference vs. Placebo ([2]; Week 13, Completer, MMRM): 2.63 | SIB Total, Difference vs. Placebo ([2]; Week 13, Completer, MMRM, listed as bryostatin): 2.6 | SIB Total change from baseline, LS Mean [2, 7]: −0.39 | SIB Total, Difference vs. Placebo [2, 7]: 0.56 | SIB Total change from baseline, LS Mean [2, 8]: 4.22 | SIB Total, Difference vs. Placebo [2, 8]: 5.53 | SIB Total change from baseline, LS Mean [2, 9]: −0.60 | SIB Total, Difference vs. Placebo [2, 9]: −0.14

Reference: patent publication US20190350898A1, “METHODS AND COMPOSITIONS FOR TREATMENT OF ALZHEIMER'S DISEASE” (Neurotrope Bioscience, Inc., priority 2018, published 2019)
